Like-named read-outs stand apart in the source and are kept apart here.
How the values were obtained:
[1] = Single ascending dose study: safety and tolerability (adverse events, ECG, vital signs, laboratory parameters); assay type: in vivo, human
Text: (§1) Healthy male and non-pregnant female volunteers over 18 years of age were eligible to participate. Subjects were not permitted to take any medications 2 weeks prior to or during the study. Exclusion criteria included known cardiac, kidney, or hepatic disease; presence of diseases that could manifest morbidity or symptoms/signs that could confound interpretation of the study results; the need to discontinue any drug administered as standard of care treatment; and the unwillingness or inability to use approved birth-control methods.
(§2) This study was an open-label, single ascending dose study designed to assess pharmacokinetics, safety, and tolerability of single doses of 2-hydroxybenzylamine acetate. A 3+3 clinical trial design with a modified Fibonacci sequence dosing scheme^14 was used with a starting dose of 50 mg; thereafter, dosages were increased to 100, 200, 330, 550, and 825 mg. These doses of 2-hydroxybenzylamine acetate correspond to 34, 68, 136, 224, 373, and 560 mg 2-hydroxybenzylamine. Each dose escalation was initiated only after reviewing safety data from all subjects receiving the previous dose.
(§3) Subjects were admitted to the Vanderbilt University Clinical Research Center and remained on the unit for 24 hours after administering 2-hydroxybenzylamine acetate orally in capsules to participants. […] Subjects were monitored at protocol-defined intervals for 24 hours after administration of 2-hydroxybenzylamine. Safety assessments included vital signs (heart rate, respiration rate, blood pressure, and SpO2), clinical laboratory parameters (blood biochemistry, hematology, and urinalysis), 12-lead ECGs, and potential adverse event assessments. All adverse events were recorded, regardless of whether they were considered study-related.

[2] = Half-life of SA in the blood; assay type: in vivo; conditions: estimated
[3] = Single ascending dose study: plasma pharmacokinetics of 2-hydroxybenzylamine; assay type: in vivo, human; conditions: for Cmax / Tmax / AUC(0-inf) / half-life: both sexes, human, plasma; for AUC(0-inf): read-out: AUC (zero to infinity)
Text: as §1
2-Hydroxybenzylamine (as the acetate salt, CAS 1206675-01-5) was obtained from TSI (China) Co., Ltd. (Shanghai, China). A commercial production lot was used (Lot 16120312). Our laboratory verified the purity of the commercial lot to be >99% via HPLC and NMR spectroscopy. Hard gel capsules (Capsugel, Jiangsu, China) containing 50, 110, and 412.5 mg of 2-hydroxybenzylamine acetate (corresponding to 34, 75, and 281 mg 2-hydroxybenzylamine) were prepared by TSI (China) Co., Ltd. Determinations of average fill weight, uniformity of weight, disintegration, 2-hydroxybenzylamine content, acetate content, and microbial and analytical tests were within all specification limits.
as §2, §3
Blood samples for pharmacokinetic analyses were collected at baseline, 0.25, 0.5, 1, 2, 6, 4, 8, and 24 hours after 2-hydroxybenzylamine acetate administration for all dose levels. The 0.25-hour sample was only collected for dosages≤200 mg, and the 6-h sample was only collected for dosages≥330 mg.
[^2H4]-2-hydroxybenzylamine, prepared by Dr. Venkataraman Amarnath as previously described^11, was used as an internal standard. An internal standard solution (100 ng/mL) of ([^2H4]-2-hydroxybenzylamine was prepared in acetonitrile and added to all standards, quality control samples, and patient samples. Standard and quality control samples of 1 mg/mL 2-hydroxybenzylamine were prepared in water. Eight standard curve samples (5, 10, 20, 100, 200, 1000, 2000, and 5000 ng/mL) were prepared with blank human plasma (Bioreclamation, Westbury, NY). In addition, three quality control samples (15, 300, and 3000 ng/mL) were prepared in blank human plasma. Plasma samples were allowed to thaw at room temperature and then vortexed. Internal standard solution (400 μL) and 100 μL of either plasma, quality controls, or standards were added and mixed in a protein precipitation filter 96-well plate (Phenomenex, Torrance, CA). The solution was eluted into a 96-well plate using a positive pressure manifold and then dried under nitrogen gas at 40° C. The samples were then reconstituted in 97/3 v/v water/acetonitrile with 10 mM ammonium formate for analysis. […]

[4] = system: paws injected with carrageenan; conditions: mice, intraperitoneally 200 mg/kg; cited from earlier work
sodium channel = conditions: cited from earlier work
γKA protein adducts = conditions: compared with PM; cited from earlier work
[5] = mice, drinking water, 1 to 10 grams per liter; cited from earlier work
HepG2 cells = conditions: cited from earlier work
[6] = in vivo; cited from earlier work
[7] = single oral dose 50 mg 2-hydroxybenzylamine acetate, mean, n = 3
[8] = single oral dose 100 mg 2-hydroxybenzylamine acetate, mean, n = 3

CC(=O)O.NCc1ccccc1O [2-Hydroxybenzylamine acetate, 2-hydroxybenzylamine acetate]
Abdominal bloating ([1]; both, human, in vivo, 24 h): 1 n (%)
Any event ([1]; both, human, in vivo, 24 h): 5 n (%)
Frequent urination ([1]; both, human, in vivo, 24 h): 2 n (%)
Headache ([1]; both, human, in vivo, 24 h): 1 n (%)
Itchy throat ([1]; both, human, in vivo, 24 h): 1 n (%)
Rash ([1]; both, human, in vivo, 24 h): 1 n (%)
Sleepiness ([1]; both, human, in vivo, 24 h): 1 n (%)

NCc1ccccc1O [2-hydroxybenzylamine]
half-life [2]: ~120 min
Cmax [3, 7]: 90 ng/mL
Tmax [3, 7]: 1.33 h
AUC(0-inf) [3, 7]: 396 ng·h/mL
half-life ([3]; single oral dose 50 mg 2-hydroxybenzylamine acetate, mean, n = 3, read-out: Half-life (converted)): 122 min
Cmax [3, 8]: 156 ng/mL
Tmax [3, 8]: 1.33 h
AUC(0-inf) [3, 8]: 622 ng·h/mL
half-life ([3]; single oral dose 100 mg 2-hydroxybenzylamine acetate, mean, n = 3, read-out: Half-life (converted)): 140 min
half-life ([3]; single oral doses, overall mean, read-out: mean half-life (converted)): 126 min
AUCextrap [3, 7]: 9.1%
AUCextrap [3, 8]: 11.2%
Cmax and AUC versus dose ([3]; single oral doses 50-825 mg 2-hydroxybenzylamine acetate): dose-dependent changes
serious adverse events or deaths ([1]; all doses): no serious adverse events or deaths
participants who reported at least 1 adverse event ([1]; both, human, in vivo, 24 h): 28%
subjects with frequent urination (most common adverse event) ([1]; both, human, in vivo, 24 h): 11%
adverse event frequency or severity versus dose ([1]; in vivo): no dose-dependent increase
changes in ECG recordings, vital signs, or laboratory parameters ([1]; in vivo): No clinically significant changes
intensity of adverse events ([1]; in vivo): mild
study-related adverse events ([1]; in vivo): No adverse events were determined to be study-related
edema in paws injected with carrageenan [4]: decreased edema
protection of sodium channel function inhibited by γKA or oxidants (sodium channel): protects
inhibition of γKA protein adducts in cells (γKA protein adducts): significantly better inhibitor of γKA protein adducts in cells than PM
tissue concentrations [5]: 10 to 500 µM
protection of HepG2 cells from cytotoxicity induced by hydrogen peroxide (HepG2 cells): protects

Cc1ncc(CO)c(CN)c1O [PM, pyridoxamine]
protection of HepG2 cells from cytotoxicity induced by hydrogen peroxide (HepG2 cells): ineffective

O=C(O)c1ccccc1O [salicylic acid]
salicylate in the blood bound to protein [6]: 80-90%

From patent publication US12435025B2, “Triphenylphosphonium-tethered salicylamine derivatives” (MTI BIOTECH, INC., priority 2019, dated 2025)
